Assay results: patent publication US7919634B2, “Fused thiophenes, articles, and methods thereof” (Corning Incorporated, priority 2009, dated 2011)
Read-outs that look alike come from different tables or passages of the source.

Test: Solubility of selected FT4 and FT5 compounds in organic solvents (10 mg compound, stepwise 5 mL solvent additions, ultrasonic bath)
Format: physicochemical
Conditions: thermodynamic from solid
Protocol: Solubility of Selected FT4 And FT5 Compounds Table 1 provides a solubility comparison of some α-, α′-unsubstituted, β-, β′-alkyl substituted FT4 (and FT5), with some α-, α′-substituted, β-, β′-alkyl substituted FT4 (and FT5) compounds. General Procedure: 10 mg of a FT4 or FT5 compound was mixed with 5.0 mL of a specified solvent and then sealed in a screw-top glass vial. The resulting mixture was kept in an ultrasonic bath for 30 minutes at ambient temperature and then kept quiescent for 30 minutes to check whether a clear solution formed. If the mixture was still not clear after these 60 minutes, an additional 5.0 mL of the same solvent was added to the vial and the 60 minute mixing and standing procedure was repeated up to a total of 20 mL of solvent.

[1] = CH2Cl2, organic solvent or mixture, 10 mg compound in 5 mL CH2Cl2, ambient temperature, read-out: Solubility CH2Cl2
[2] = CH2Cl2, organic solvent or mixture, 10 mg compound in 10 mL CH2Cl2, ambient temperature, read-out: Solubility CH2Cl2
[3] = hexane, organic solvent or mixture, 10 mg compound in 5 mL hexane, ambient temperature, read-out: Solubility hexane
[4] = hexane, organic solvent or mixture, 10 mg compound in 10 mL hexane, ambient temperature, read-out: Solubility hexane
[5] = hexane, organic solvent or mixture, 10 mg compound in 15 mL hexane, ambient temperature, read-out: Solubility hexane
[6] = hexane, organic solvent or mixture, 10 mg compound in 20 mL hexane, ambient temperature, read-out: Solubility hexane
[7] = toluene, organic solvent or mixture, 10 mg compound in 5 mL toluene, ambient temperature, read-out: Solubility toluene
[8] = toluene, organic solvent or mixture, 10 mg compound in 10 mL toluene, ambient temperature, read-out: Solubility toluene
[9] = CH2Cl2, organic solvent or mixture, 10 mg compound in 15 mL CH2Cl2, ambient temperature, read-out: Solubility CH2Cl2
[10] = CH2Cl2, organic solvent or mixture, 10 mg compound in 20 mL CH2Cl2, ambient temperature, read-out: Solubility CH2Cl2
[11] = toluene, organic solvent or mixture, 10 mg compound in 15 mL toluene, ambient temperature, read-out: Solubility toluene
[12] = toluene, organic solvent or mixture, 10 mg compound in 20 mL toluene, ambient temperature, read-out: Solubility toluene

| Structure (SMILES) | solubility at 60 min [1] | solubility at 60 min [2] | solubility at 60 min [3] | solubility at 60 min [4] | solubility at 60 min [5] | solubility at 60 min [6] | solubility at 60 min [7] | solubility at 60 min [8] | solubility at 60 min [9] | solubility at 60 min [10] | solubility at 60 min [11] | solubility at 60 min [12] |
| --- | --- | --- | --- | --- | --- | --- | --- | --- | --- | --- | --- | --- |
| CCCCCCCCCCCCCc1csc2c1sc1c3scc(CCCCCCCCCCCCC)c3sc21 | < 2000 µg/mL | > 500 µg/mL | < 2000 µg/mL | < 2000 µg/mL | < 2000 µg/mL | < 2000 µg/mL | < 2000 µg/mL | > 500 µg/mL | – | – | – | – |
| CCCCCCCCCCCCCc1c(-c2cccs2)sc2c1sc1c3sc(-c4cccs4)c(CCCCCCCCCCCCC)c3sc21 | > 500 µg/mL | – | < 2000 µg/mL | < 2000 µg/mL | < 2000 µg/mL | < 2000 µg/mL | > 500 µg/mL | – | – | – | – | – |
| CCCCCCCCCCCCCc1c(-c2ccccc2)sc2c1sc1c3sc(-c4ccccc4)c(CCCCCCCCCCCCC)c3sc21 | < 2000 µg/mL | > 500 µg/mL | < 2000 µg/mL | < 2000 µg/mL | < 2000 µg/mL | > 500 µg/mL | > 500 µg/mL | – | – | – | – | – |
| CCCCCCCCCCCCCCCCCc1csc2c1sc1c3scc(CCCCCCCCCCCCCCCCC)c3sc21 | < 2000 µg/mL | < 2000 µg/mL | < 2000 µg/mL | < 2000 µg/mL | < 2000 µg/mL | < 2000 µg/mL | < 2000 µg/mL | < 2000 µg/mL | < 2000 µg/mL | < 2000 µg/mL | < 2000 µg/mL | < 2000 µg/mL |
| CCCCCCCCCCCCCCCCCc1c(-c2cccs2)sc2c1sc1c3sc(-c4cccs4)c(CCCCCCCCCCCCCCCCC)c3sc21 | < 2000 µg/mL | < 2000 µg/mL | < 2000 µg/mL | < 2000 µg/mL | < 2000 µg/mL | < 2000 µg/mL | < 2000 µg/mL | < 2000 µg/mL | < 2000 µg/mL | > 500 µg/mL | > 500 µg/mL | > 500 µg/mL |
| CCCCCCCCCCCCCCCCCc1c(-c2ccccc2)sc2c1sc1c3sc(-c4ccccc4)c(CCCCCCCCCCCCCCCCC)c3sc21 | < 2000 µg/mL | < 2000 µg/mL | < 2000 µg/mL | < 2000 µg/mL | < 2000 µg/mL | < 2000 µg/mL | > 500 µg/mL | > 500 µg/mL | > 500 µg/mL | – | – | – |
| CCCCCCCCCCCCCc1csc2c1sc1c2sc2c3scc(CCCCCCCCCCCCC)c3sc21 | < 2000 µg/mL | > 500 µg/mL | < 2000 µg/mL | > 500 µg/mL | – | – | > 500 µg/mL | – | – | – | – | – |
| CCCCCCCCCCCCCc1c(-c2cccs2)sc2c1sc1c2sc2c3sc(-c4cccs4)c(CCCCCCCCCCCCC)c3sc21 | > 500 µg/mL | – | < 2000 µg/mL | < 2000 µg/mL | < 2000 µg/mL | < 2000 µg/mL | > 500 µg/mL | – | – | – | – | – |
| CCCCCCCCCCCCCc1c(-c2ccccc2)sc2c1sc1c2sc2c3sc(-c4ccccc4)c(CCCCCCCCCCCCC)c3sc21 | > 500 µg/mL | – | > 500 µg/mL | – | – | – | > 500 µg/mL | – | – | – | – | – |
